# Reference: PMC9652372, “Glycolytic flux control by drugging phosphoglycolate phosphatase” (Nature Communications, 2022)
# Where a chain is given by its changes, count along the chain named. Several values for one entry are separate records, joined by “and”; a condition that tells them apart may be missing. Identical values can stand only once.
# Assays:
# HT1080 cells [1] = assay: Cell viability assay (AquaBluer); type: cell-based, human
# Description: Cell viability was assessed using AquaBluer according to the manufacturer’s recommendations (MultiTarget Pharmaceuticals, LLC). Fluorescence (excitation: 540 nm; emission: 590 nm) was analyzed on a Clariostar microplater reader.
# murine PGP = biological target: T1, murine PGP (Mus musculus, UniProt Q8CHP8); assay: IC50 determination, murine PGP, 2-phospho-L-lactate (2PL) dephosphorylation; settings: for M.m PGP on 2- Phospho-L-lactate: activity, control = 100
# T1 sequence (Q8CHP8 1-321): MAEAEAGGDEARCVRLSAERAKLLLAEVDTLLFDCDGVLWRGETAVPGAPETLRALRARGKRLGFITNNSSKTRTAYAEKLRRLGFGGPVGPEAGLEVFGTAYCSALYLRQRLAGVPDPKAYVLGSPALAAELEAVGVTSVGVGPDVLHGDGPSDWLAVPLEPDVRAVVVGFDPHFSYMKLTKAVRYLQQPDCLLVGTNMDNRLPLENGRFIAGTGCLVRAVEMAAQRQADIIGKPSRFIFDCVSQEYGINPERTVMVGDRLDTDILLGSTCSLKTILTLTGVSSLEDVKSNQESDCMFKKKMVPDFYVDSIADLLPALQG
# murine PGP^C297S = biological target: T2, murine PGP^C297S (Mus musculus, UniProt Q8CHP8, C297S); assay: IC50 determination, PGP^C297S, PG dephosphorylation; type: biochemical
# T2 construct: His6 (N, cleaved yes); made in house; host or cells: Escherichia coli BL21 (DE3)
# T2 sequence (Q8CHP8 1-321 C297S): T1 sequence (Q8CHP8 1-321) with C297S
# Description: . […] Data were analyzed with GraphPad Prism 7.04.
# Supplementary Figure 3 (related to Figure 2): Characterization of the homodimeric PGP variant PGPC297S. (a) In vitro phosphatase activity of purified murine PGPC297S in comparison to purified murine PGPWT, using 2- phosphoglycolate (PG) as substrate. (b) Determ ination of […]
# CP1. PG dephosphorylation was quantified using malachite green. All data in (a) and (b) are mean values ± S.E.M of n=3 independent experiments. Error bars not shown are hidden by the symbols. (c) PGP self-association in the absence or presence of CP1. Size- exclusion chromatography (SEC) of purified, recombinant murine PGP-WT in comparison to PGP-C297 […]
# (1 picture or pasted object on this page, not shown here)
# HT1080 cells [2] = assay: NMR quantification of cellular metabolites; type: cell-based, human
# Description: For NMR experiments, 2.7 million cells were seeded in 10 cm dishes for all samples. […] For each condition, six samples were prepared; one of which was used to count the number of cells at the end of the sample preparation. Free metabolites were obtained by methanol extraction: After washing the samples with ice-cold PBS, they were placed in liquid nitrogen for 2 min, followed by mixing the samples cooled on ice with 5 mL methanol. The samples were mixed for 15 min at 4 °C, and centrifuged at 2.5 × g for 30 min at 4 °C. The solvent was removed by evaporation with a N2 gas flow over 5 h on ice, followed by freeze-drying under vacuum. The remaining pellet was dissolved in 700 µL D2O, and transferred to a 5 mm borosilicate NMR tube. NMR experiments were performed with a BRUKER AVANCE NEO 600 spectrometer operating at 600.13 MHz for ^1H detection equipped with a cryogenic NMR probe offering enhanced sensitivity. The ^1H NMR spectra were acquired using a double watergate pulse sequence with excitation sculpting for water suppression. A relaxation delay of 4 s was sufficient. The π and π/2 pulses performed with a radio frequency power of 62.5 kHz were combined with 2 ms selective rectangular shape pulses optimized for efficient suppression of the H2O ^1H resonance, which was chosen as the transmitter frequency. The two blocks of gradient pulses were conducted over 1 ms per pulse using gradients of 0.155 T/m and 0.055 T/m with a smoothed rectangular shape profile (SMSQ10.100). Signal averaging was achieved over 512 scans using an acquisition time of 1.38 s. Acquisition and pre-processing of NMR spectra was performed under the control of a workstation with TopSpin 4.0.7. Data processing included Fourier transformation, zero order phase correction, 1 Hz line broadening using a Lorentzian window function and automatic baseline correction with a polynomial of fifth degree. A 9 mmol/L aqueous sucrose solution was used as a calibration compound to calibrate an ERETIC2 reference for absolute concentration determination[66],[67]. Based on the sucrose reference, an electronic signal was placed in each ^1H spectrum to calibrate the deconvolution software Chenomx NMR suite. A standard protocol for quantitative NMR was applied: The signal corresponding to the calibration compound was integrated and normalized according to the number of protons of this compound. The unknown concentration of compound x in the presence of the calibration compound was calculated according to: Cx=Ix/IcalNcal/NxCcal
# With I, N, and C being the integral area, number of nuclei, or concentration of the calibration (cal) or the targeted compound (x), respectively. Due to spectral superposition, glycerol-3-phosphate could not be quantified in ^1H NMR spectra. Therefore, we conducted ^31P - ^1H HMBC 2D experiments and quantified glycerol-3-phosphate using the phosphorylcholine peak and the respective concentration known from ^1H NMR spectra. […] Three gradient pulses were used (sequence hmbcgpndqf) over 1 ms each with gradient strengths of 0.06 T/m, 0.06 T/m and 0.05 T/m. The relaxation delay was set to 2 s, the acquisition time to 0.328 s. […] Data processing was achieved as described above except for the Qsine window function in both dimensions. All measurements were performed at 7 °C.
smiles,measurement,setting,value
O=C(Nc1ccccc1C(=O)O)c1ccc(Oc2ccc(C(=O)Nc3ccccc3C(=O)O)cc2)cc1 [CP1],fluorescence intensity,HT1080 cells [1]; CP1 10µM,73536.5 arbitrary units and 54985.5 arbitrary units and 58790.8 arbitrary units
same,fluorescence intensity,HT1080 cells [1]; CP1 33 µM,67669 arbitrary units and 60068 arbitrary units and 61386.5 arbitrary units
same,fluorescence intensity,HT1080 cells [1]; CP1 100 µM,68775 arbitrary units and 63101.8 arbitrary units and 70832.2 arbitrary units
same,fluorescence intensity,HT1080 cells [1]; CP1 200 µM,68392.2 arbitrary units and 53769.5 arbitrary units
same,cytotoxicity,"HT1080 cells [1]; HT1080 cells, 100 µM, 24 h",not cytotoxic
same,IC50,murine PGP,310 ± 30 nM
same,M.m PGP on 2- Phospho-L-lactate,murine PGP; CP1 log[M] -5.04576,4.1667 and 4.9853 and 5.6548
same,M.m PGP on 2- Phospho-L-lactate,murine PGP; CP1 log[M] -5.52288,7.7778 and 8.7977 and 9.2262
same,M.m PGP on 2- Phospho-L-lactate,murine PGP; CP1 log[M] -6,23.0556 and 24.9267 and 23.8095
same,M.m PGP on 2- Phospho-L-lactate,murine PGP; CP1 log[M] -6.47712,45.5556 and 51.3196 and 45.8333
same,M.m PGP on 2- Phospho-L-lactate,murine PGP; CP1 log[M] -6.95424,73.3333 and 81.2317 and 78.869
same,M.m PGP on 2- Phospho-L-lactate,murine PGP; CP1 log[M] -7.43136,88.6111 and 95.3079 and 85.7143
same,M.m PGP on 2- Phospho-L-lactate,murine PGP; CP1 log[M] -7.90849,96.3889 and 100.293 and 92.8571
same,IC50,"murine PGP^C297S; PGP^C297S, substrate PG",~250 nM
same,remaining activity at […],"murine PGP^C297S; read-out: PGP-C297S activity in presence of CP1 relative to DMSO control, CP1 log[M] -5.60206",6.31%
same,remaining activity at 1.25 µM,"murine PGP^C297S; read-out: PGP-C297S activity in presence of CP1 relative to DMSO control, CP1 log[M] -5.90309",12.6%
same,remaining activity at 0.3125 µM,"murine PGP^C297S; read-out: PGP-C297S activity in presence of CP1 relative to DMSO control, CP1 log[M] -6.50515",44.1%
same,remaining activity at 0.15625 µM,"murine PGP^C297S; read-out: PGP-C297S activity in presence of CP1 relative to DMSO control, CP1 log[M] -6.80618",56.8%
same,remaining activity at 0.078125 µM,"murine PGP^C297S; read-out: PGP-C297S activity in presence of CP1 relative to DMSO control, CP1 log[M] -7.10721",72.1%
same,remaining activity at 0.03906 µM,"murine PGP^C297S; read-out: PGP-C297S activity in presence of CP1 relative to DMSO control, CP1 log[M] -7.40824",75.7%
same,remaining activity at 0.01953 µM,"murine PGP^C297S; read-out: PGP-C297S activity in presence of CP1 relative to DMSO control, CP1 log[M] -7.70927",90.1%
same,change of acetate levels,"HT1080 cells [2]; HT1080 cells, 3 h, 33 µM CP1",−42%
same,change of alanine levels,"HT1080 cells [2]; HT1080 cells, 3 h, 33 µM CP1",−52%
same,change of lactate levels,"HT1080 cells [2]; HT1080 cells, 3 h, 33 µM CP1",−45%
same,change of pyruvate levels,"HT1080 cells [2]; HT1080 cells, 3 h, 33 µM CP1",−10%
same,1-Methylnicotinamide (NMR metabolite level),"HT1080 cells [2]; T3: 3h CP1-treated, Exp #1-5",0.0004582 and 0.0004235 and 0.0007003 and 0.0006519 and 0.0004828
same,2-Hydroxyglutarate (NMR metabolite level),"HT1080 cells [2]; T3: 3h CP1-treated, Exp #1-5",0.01261 and 0.01491 and 0.01314 and 0.01427 and 0.01273
same,ATP (NMR metabolite level),"HT1080 cells [2]; T3: 3h CP1-treated, Exp #1-5",0.001497 and 0.001391 and 0.001868 and 0.001572 and 0.001599
same,Acetic acid (NMR metabolite level),"HT1080 cells [2]; T3: 3h CP1-treated, Exp #1-5",0.004551 and 0.004658 and 0.004836 and 0.004678 and 0.004285
same,Choline (NMR metabolite level),"HT1080 cells [2]; T3: 3h CP1-treated, Exp #1-5",0.0005498 and 0.0005142 and 0.0005336 and 0.0006902 and 0.0006337
same,Creatine (NMR metabolite level),"HT1080 cells [2]; T3: 3h CP1-treated, Exp #1-5",0.00675 and 0.006504 and 0.00667 and 0.008321 and 0.006277
same,D-Glucose (NMR metabolite level),"HT1080 cells [2]; T3: 3h CP1-treated, Exp #1-5",0.1212 and 0.1286 and 0.1124 and 0.1017 and 0.1229
same,Dimethylamine (NMR metabolite level),"HT1080 cells [2]; T3: 3h CP1-treated, Exp #1-5",0.03604 and 0.03364 and 0.02538 and 0.0283 and 0.03615
same,Formic acid (NMR metabolite level),"HT1080 cells [2]; T3: 3h CP1-treated, Exp #1-5",0.001497 and 0.001482 and 0.001868 and 0.001994 and 0.001569
same,Fumaric acid (NMR metabolite level),"HT1080 cells [2]; T3: 3h CP1-treated, Exp #1-5",0.0003054 and 0.0002722 and 0.0003001 and 0.0003451 and 0.0003319
same,Glutathione (NMR metabolite level),"HT1080 cells [2]; T3: 3h CP1-treated, Exp #1-5",0.01109 and 0.01041 and 0.01101 and 0.01265 and 0.01144
same,Glycerol 3-phosphate (NMR metabolite level),"HT1080 cells [2]; T3: 3h CP1-treated, Exp #1-5",0.005205 and 0.004086 and 0.005958 and 0.005982 and 0.004016
same,Glycine (NMR metabolite level),"HT1080 cells [2]; T3: 3h CP1-treated, Exp #1-5",0.01387 and 0.01388 and 0.01587 and 0.01515 and 0.01301
same,Histidine (NMR metabolite level),"HT1080 cells [2]; T3: 3h CP1-treated, Exp #1-5",0.001863 and 0.001573 and 0.001667 and 0.001611 and 0.00166
same,L-Alanine (NMR metabolite level),"HT1080 cells [2]; T3: 3h CP1-treated, Exp #1-5",0.003726 and 0.003932 and 0.003735 and 0.003681 and 0.003651
same,L-Arginine (NMR metabolite level),"HT1080 cells [2]; T3: 3h CP1-treated, Exp #1-5",0.003085 and 0.0036 and 0.003035 and 0.003183 and 0.004798
same,L-Aspartic acid (NMR metabolite level),"HT1080 cells [2]; T3: 3h CP1-treated, Exp #1-5",0.006078 and 0.006201 and 0.007304 and 0.006941 and 0.006337
same,L-Glutamic acid (NMR metabolite level),"HT1080 cells [2]; T3: 3h CP1-treated, Exp #1-5",0.03955 and 0.04114 and 0.04112 and 0.04632 and 0.04125
same,L-Glutamine (NMR metabolite level),"HT1080 cells [2]; T3: 3h CP1-treated, Exp #1-5",0.1032 and 0.09634 and 0.112 and 0.1011 and 0.1019
same,L-Isoleucine (NMR metabolite level),"HT1080 cells [2]; T3: 3h CP1-treated, Exp #1-5",0.008064 and 0.008046 and 0.007837 and 0.007708 and 0.008178
same,L-Lactic acid (NMR metabolite level),"HT1080 cells [2]; T3: 3h CP1-treated, Exp #1-5",0.03287 and 0.03079 and 0.03432 and 0.03474 and 0.0328
same,L-Leucine (NMR metabolite level),"HT1080 cells [2]; T3: 3h CP1-treated, Exp #1-5",0.008094 and 0.008077 and 0.008637 and 0.008321 and 0.007846
same,L-Lysine (NMR metabolite level),"HT1080 cells [2]; T3: 3h CP1-treated, Exp #1-5",0.005651 and 0.005687 and 0.005569 and 0.005062 and 0.005432
same,L-Methionine (NMR metabolite level),"HT1080 cells [2]; T3: 3h CP1-treated, Exp #1-5",0.002474 and 0.002571 and 0.002635 and 0.002454 and 0.002656
same,L-Phenylalanine (NMR metabolite level),"HT1080 cells [2]; T3: 3h CP1-treated, Exp #1-5",0.004704 and 0.004749 and 0.004702 and 0.00464 and 0.004708
same,L-Threonine (NMR metabolite level),"HT1080 cells [2]; T3: 3h CP1-treated, Exp #1-5",0.0135 and 0.01422 and 0.01357 and 0.01411 and 0.01304
same,L-Tyrosine (NMR metabolite level),"HT1080 cells [2]; T3: 3h CP1-treated, Exp #1-5",0.004795 and 0.004537 and 0.004569 and 0.004755 and 0.004798
